Measurements from patent US20250195513A1, “DEGRADATION OF IRAK4 BY CONJUGATION OF IRAK4 INHIBITORS WITH E3 LIGASE LIGAND AND METHODS OF USE” (BeiGene, Ltd., priority 2022, published 2025).
Like-named read-outs stand apart in the source and are kept apart here.

Target: T1, IRAK4 (Homo sapiens, UniProt Q9NWZ3)
T1 construct: endogenous in cells; host or cells: Karpas299
T1 sequence (Q9NWZ3 1-460): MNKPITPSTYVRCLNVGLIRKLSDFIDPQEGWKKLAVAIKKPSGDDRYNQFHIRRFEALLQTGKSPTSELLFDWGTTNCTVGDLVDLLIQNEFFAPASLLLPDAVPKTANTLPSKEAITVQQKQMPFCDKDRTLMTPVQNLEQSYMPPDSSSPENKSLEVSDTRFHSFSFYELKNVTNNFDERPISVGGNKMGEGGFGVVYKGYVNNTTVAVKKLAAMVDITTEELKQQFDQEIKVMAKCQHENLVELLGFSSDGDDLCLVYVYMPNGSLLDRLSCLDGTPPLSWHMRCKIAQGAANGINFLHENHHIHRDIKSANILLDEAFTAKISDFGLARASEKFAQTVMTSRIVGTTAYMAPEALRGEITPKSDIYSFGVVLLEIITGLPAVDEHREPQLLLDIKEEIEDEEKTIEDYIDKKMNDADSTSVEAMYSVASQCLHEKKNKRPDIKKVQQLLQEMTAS
Test: IRAK4 Degradation Assay (Karpas299, HTRF/TR-FRET)
Format: cell-based
Outline: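 Karpas299 cells at 0.2 million per well were exposed to serially diluted compounds for 24 h or 5 h, then lysed. IRAK4 remaining in lysates was quantified by HTRF (665/620 nm) after overnight antibody incubation at room temperature. Percent degradation was fitted to a four-parameter curve to give IC50 (DC50).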

[1] = Karpas-299 cells, 24 h treatment, maximum percentage of degradation, read-out: IRAK4 in Karpas-299 (24 h) Dmax (%)
[2] = Karpas-299 cells, 24 h treatment, read-out: IRAK4 in Karpas-299 (24 h) DC50
[3] = Karpas-299 cells, 5 h treatment, maximum percentage of degradation, read-out: IRAK4 in Karpas-299 (5 h) Dmax (%)
[4] = Karpas-299 cells, 5 h treatment, read-out: IRAK4 in Karpas-299 (5 h) DC50

Dmax [1]	DC50 [2]	Dmax [3]	DC50 [4]	DC50 (Degradation (Karpas-299), comparison table, Linker Type A, read-out: Compound (Linker Type A) DC50)	Dmax (Degradation (Karpas-299), comparison table, Linker Type A, read-out: Compound (Linker Type A) Dmax (%))	Compound
95%	10 nM					COc1cc2nn([C@H]3CC[C@H](CN4CCN(C(=O)[C@@H]5CCN(c6cc(F)c(N7CCC(=O)NC7=O)c(F)c6)C5)CC4)CC3)cc2cc1NC(=O)c1cccn(C2CC2)c1=O [Example 171, 1-cyclopropyl-N-(2-((1R,4r)-4-((4-((R)-1-(4-(2,4-dioxotetrahydropyrimidin-1(2H)-yl)-3,5-difluorophenyl)pyrrolidine-3-carbonyl)piperazin-1-yl)methyl)cyclohexyl)-6-methoxy-2H-indazol-5-yl)-2-oxo-1,2-dihydropyridine-3-carboxamide]
95%	6 nM					O=C1CCN(c2ccc(N3CC[C@@H](C(=O)N4CCN([C@H]5CC[C@H](n6cc(NC(=O)c7coc(-c8ccnc(NCC9CC9)c8)n7)c(C(F)F)n6)CC5)CC4)C3)cc2)C(=O)N1 [Example 23, 2-(2-((cyclopropylmethyl)amino)pyridin-4-yl)-N-(3-(difluoromethyl)-1-((1R,4r)-4-(4-((R)-1-(4-(2,4-dioxotetrahydropyrimidin-1(2H)-yl)phenyl)pyrrolidine-3-carbonyl)piperazin-1-yl)cyclohexyl)-1H-pyrazol-4-yl)oxazole-4-carboxamide]
97%	0.3 nM					CC(C)(O)c1cc2nn(C34CCC(N5CCN(C(=O)C6CN(c7cc(F)c([C@H]8CCC(=O)NC8=O)c(F)c7)C6)CC5)(CC3)CC4)cc2cc1NC(=O)c1ccc2cc(C#N)cnn12 [Example 149, (R)-3-cyano-N-(2-(4-(4-(1-(4-(2,6-dioxopiperidin-3-yl)-3,5-difluorophenyl)azetidine-3-carbonyl)piperazin-1-yl)bicyclo[2.2.2]octan-1-yl)-6-(2-hydroxypropan-2-yl)-2H-indazol-5-yl)pyrrolo[1,2-b]pyridazine-7-carboxamide]
92%	3.7 nM					CC(C)(O)c1cc2nn([C@H]3C[C@H](N4CCN(C5CN(c6cc(F)c([C@H]7CCC(=O)NC7=O)c(F)c6)C5)CC4)C3)cc2cc1NC(=O)c1ccc2cc(C#N)cnn12 [Example 331, 3-cyano-N-(2-((1R,3r)-3-(4-(1-(4-((R)-2,6-dioxopiperidin-3-yl)-3,5-difluorophenyl)azetidin-3-yl)piperazin-1-yl)cyclobutyl)-6-(2-hydroxypropan-2-yl)-2H-indazol-5-yl)pyrrolo[1,2-b]pyridazine-7-carboxamide]
87%	16 nM					CC(C)(O)c1cc2nn([C@H]3CC[C@H](N4CCN([C@H]5CCN(c6ccc(N7CCC(=O)NC7=O)cc6)C5)CC4)CC3)cc2cc1NC(=O)c1ccc2cc(C#N)cnn12 [Example 295, 3-cyano-N-(2-((1S,4r)-4-(4-((S)-1-(4-(2,4-dioxotetrahydropyrimidin-1(2H)-yl)phenyl)pyrrolidin-3-yl)piperazin-1-yl)cyclohexyl)-6-(2-hydroxypropan-2-yl)-2H-indazol-5-yl)pyrrolo[1,2-b]pyridazine-7-carboxamide]
97%	7.8 nM	94%	44 nM			COc1cc2nn([C@H]3CC[C@H](N4CCN(C(=O)[C@@H]5CCN(c6cc(F)c(N7CCC(=O)NC7=O)c(F)c6)C5)CC4)CC3)cc2cc1NC(=O)c1cccc(C(F)(F)F)n1 [Example 177, N-(2-((1R,4r)-4-(4-((R)-1-(4-(2,4-dioxotetrahydropyrimidin-1(2H)-yl)-3,5-difluorophenyl)pyrrolidine-3-carbonyl)piperazin-1-yl)cyclohexyl)-6-methoxy-2H-indazol-5-yl)-6-(trifluoromethyl)picolinamide]
99%	4.3 nM	95%	17 nM			[2H]C([2H])([2H])Oc1cc2nn([C@H]3CC[C@H](N4CCN(C(=O)[C@@H]5CCN(c6cc(F)c([C@H]7CCC(=O)NC7=O)c(F)c6)C5)CC4)CC3)cc2cc1NC(=O)c1cccc(C(F)(F)F)n1 [Example 169, N-(2-((1R,4r)-4-(4-((R)-1-(4-((R)-2,6-dioxopiperidin-3-yl)-3,5-difluorophenyl)pyrrolidine-3-carbonyl)piperazin-1-yl)cyclohexyl)-6-(methoxy-d3)-2H-indazol-5-yl)-6-(trifluoromethyl)picolinamide]
94%	8.9 nM					CC(C)c1cc(-c2nc(C(=O)Nc3cn([C@H]4CC[C@H](N5CCN(C(=O)C6CN(c7cc(F)c([C@H]8CCC(=O)NC8=O)c(F)c7)C6)CC5)CC4)nc3C(F)F)co2)ccn1 [Example 86, N-(3-(difluoromethyl)-1-((1r,4r)-4-(4-(1-(4-((R)-2,6-dioxopiperidin-3-yl)-3,5-difluorophenyl)azetidine-3-carbonyl)piperazin-1-yl)cyclohexyl)-1H-pyrazol-4-yl)-2-(2-isopropylpyridin-4-yl)oxazole-4-carboxamide]
90%	6.8 nM					O=C1CCN(c2ccc(N3CC[C@H](C(=O)N4CCN([C@H]5CC[C@H](n6cc(NC(=O)c7coc(-c8ccnc(NCC9CC9)c8)n7)c(C(F)F)n6)CC5)CC4)C3)cc2)C(=O)N1 [Example 22, 2-(2-((cyclopropylmethyl)amino)pyridin-4-yl)-N-(3-(difluoromethyl)-1-((1S,4r)-4-(4-((S)-1-(4-(2,4-dioxotetrahydropyrimidin-1(2H)-yl)phenyl)pyrrolidine-3-carbonyl)piperazin-1-yl)cyclohexyl)-1H-pyrazol-4-yl)oxazole-4-carboxamide]
100%	1.3 nM	87%	5.2 nM			O=C1CC[C@H](c2c(F)cc(N3CC[C@@H](C(=O)N4CCN([C@H]5CC[C@H](n6cc7cc(NC(=O)c8cccc(C(F)(F)F)n8)c(C(=O)N[C@H]8C[C@H](CO)C8)cc7n6)CC5)CC4)C3)cc2F)C(=O)N1 [Example 168, 2-((1R,4R)-4-(4-((R)-1-(4-((R)-2,6-dioxopiperidin-3-yl)-3,5-difluorophenyl)pyrrolidine-3-carbonyl)piperazin-1-yl)cyclohexyl)-N-((1r,3R)-3-(hydroxymethyl)cyclobutyl)-5-(6-(trifluoromethyl)picolinamido)-2H-indazole-6-carboxamide]
25%	> 1000 nM					CC(C)(O)c1cc2nn([C@H]3CC[C@H](N4CCN(CCc5cc(F)c([C@H]6CCC(=O)NC6=O)c(F)c5)CC4)CC3)cc2cc1NC(=O)c1ccn2cc(C#N)cnc12 [Example 413, 3-cyano-N-(2-((1R,4r)-4-(4-(4-((R)-2,6-dioxopiperidin-3-yl)-3,5-difluorophenethyl)piperazin-1-yl)cyclohexyl)-6-(2-hydroxypropan-2-yl)-2H-indazol-5-yl)pyrrolo[1,2-a]pyrimidine-8-carboxamide]
89%	15 nM			15 nM	89%	COc1cc2nn([C@H]3CC[C@H](CN4CCN(C(=O)[C@@H]5CCN(c6ccc(N7CCC(=O)NC7=O)cc6)C5)CC4)CC3)cc2cc1NC(=O)c1cccc(C(F)(F)F)n1 [Example 36, N-(2-((1R,4r)-4-((4-((R)-1-(4-(2,4-dioxotetrahydropyrimidin-1(2H)-yl)phenyl)pyrrolidine-3-carbonyl)piperazin-1-yl)methyl)cyclohexyl)-6-methoxy-2H-indazol-5-yl)-6-(trifluoromethyl)picolinamide]
97%	0.2 nM					CC(C)(O)c1cc2nn([C@H]3CC[C@H](CN4CCN(C(=O)C5CN(c6cc(F)c([C@H]7CCC(=O)NC7=O)c(F)c6)C5)CC4)CC3)cc2cc1NC(=O)c1csc(-c2cn[nH]c2)n1 [Example 434, N-(2-((1r,4r)-4-((4-(1-(4-((R)-2,6-dioxopiperidin-3-yl)-3,5-difluorophenyl)azetidine-3-carbonyl)piperazin-1-yl)methyl)cyclohexyl)-6-(2-hydroxypropan-2-yl)-2H-indazol-5-yl)-2-(1H-pyrazol-4-yl)thiazole-4-carboxamide]
97%	2.1 nM					NC(=O)c1nn([C@H]2CC[C@H](N3CCN(C(=O)C4CN(c5ccc(N6CCC(=O)NC6=O)cc5)C4)CC3)CC2)cc1NC(=O)c1coc(-c2ccnc(NCC(F)(F)F)c2)n1 [Example 8, N-(3-carbamoyl-1-((1r,4r)-4-(4-(1-(4-(2,4-dioxotetrahydropyrimidin-1(2H)-yl)phenyl)azetidine-3-carbonyl)piperazin-1-yl)cyclohexyl)-1H-pyrazol-4-yl)-2-(2-((2,2,2-trifluoroethyl)amino)pyridin-4-yl)oxazole-4-carboxamide]
80%	183 nM					CC(C)(O)c1cc2nn([C@H]3CC[C@H](N4CCN(c5ccc(CCC(=O)NC6CCC(=O)NC6=O)cc5)CC4)CC3)cc2cc1NC(=O)c1ccc2cc(C#N)cnn12 (some centres unmarked) [Example 440, 3-cyano-N-(2-((1r,4r)-4-(4-(4-(3-((2,6-dioxopiperidin-3-yl)amino)-3-oxopropyl)phenyl)piperazin-1-yl)cyclohexyl)-6-(2-hydroxypropan-2-yl)-2H-indazol-5-yl)pyrrolo[1,2-b]pyridazine-7-carboxamide]
